This passage reports EC50 results from patent publication US12070455B2, “Thienopyrrole compounds” (Gilead Sciences, Inc., priority 2021, dated 2024).

The target of one assay is T1, TLR8 (Homo sapiens, UniProt Q9NR97).
T1 construct: Human peripheral blood mononuclear cells (PBMCs) consist of lymphocytes, monocytes and dendritic cells that express TLR7, TLR8 and TLR9; endogenous in cells; host or cells: cryopreserved human PBMCs from healthy donors
T1 sequence (Q9NR97 27-1041): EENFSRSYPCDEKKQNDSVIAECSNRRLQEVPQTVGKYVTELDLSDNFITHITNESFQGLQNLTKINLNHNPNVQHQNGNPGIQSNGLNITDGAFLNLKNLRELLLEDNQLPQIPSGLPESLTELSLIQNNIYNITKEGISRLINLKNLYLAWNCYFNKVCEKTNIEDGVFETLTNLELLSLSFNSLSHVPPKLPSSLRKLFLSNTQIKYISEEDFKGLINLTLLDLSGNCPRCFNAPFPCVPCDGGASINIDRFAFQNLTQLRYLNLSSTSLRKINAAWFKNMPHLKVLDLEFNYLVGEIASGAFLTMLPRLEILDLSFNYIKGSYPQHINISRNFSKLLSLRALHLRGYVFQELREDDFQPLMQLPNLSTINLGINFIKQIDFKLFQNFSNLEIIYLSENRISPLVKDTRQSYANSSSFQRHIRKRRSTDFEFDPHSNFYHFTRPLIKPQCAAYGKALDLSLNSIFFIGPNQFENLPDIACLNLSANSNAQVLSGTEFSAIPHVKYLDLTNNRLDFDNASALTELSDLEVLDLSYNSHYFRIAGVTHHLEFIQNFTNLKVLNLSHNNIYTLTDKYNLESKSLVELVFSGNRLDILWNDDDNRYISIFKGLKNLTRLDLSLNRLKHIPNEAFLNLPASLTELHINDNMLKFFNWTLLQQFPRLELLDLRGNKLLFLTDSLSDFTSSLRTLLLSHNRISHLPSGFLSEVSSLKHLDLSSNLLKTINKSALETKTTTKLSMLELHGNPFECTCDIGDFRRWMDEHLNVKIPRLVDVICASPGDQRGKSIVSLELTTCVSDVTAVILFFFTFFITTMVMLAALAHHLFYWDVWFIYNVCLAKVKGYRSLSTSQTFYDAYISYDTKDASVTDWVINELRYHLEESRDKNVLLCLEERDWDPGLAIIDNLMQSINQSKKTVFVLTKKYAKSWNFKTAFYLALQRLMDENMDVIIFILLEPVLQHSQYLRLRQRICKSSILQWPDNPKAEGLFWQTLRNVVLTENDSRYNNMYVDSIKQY
As to the kind of experiment: TLR8 human peripheral blood mononuclear cell (PBMC) cell-based assay. The note with it: human PBMCs; 1 h with antagonist, then TLR8 agonist Compound A 800 nM for 6 h; cytokines (TNFa and IL12p40) in supernatant; read-out: TLR-8 EC50. The method, then:
TLR8 Human Peripheral Blood Mononuclear Cell (PBMC) Cell-Based Assay
Cryopreserved human PBMCs from healthy donors were thawed and resuspended in RPMI-1640 media with L-glutamine (Corning) supplemented with 10% Fetal Bovine Serum (Hyclone) and 1× Penicillin-Streptomycin (Corning). After counting, the cell density was adjusted to 2 million cells/ml and incubated for 1 hour at 37° C., 5% CO2 for recovery. Following the recovery, the cells were plated by adding 50 μl per well (100,000 cells) to 384-well cell culture plates (Greiner) containing 250 nl of test antagonists in 100% DMSO per well, in a 10 points dose response in quadruplicates. PBMCs were incubated in the presence of antagonists for one hour at 37° C., 5% CO2 before being stimulated with TLR8 agonist. Compound A (Gilead Sciences, U.S. Pat. No. 10,285,990) was used as the TLR8 agonist at a final concentration of 800 nM. PBMCs were incubated in the presence of antagonist and the TLR8 agonist for an additional 6 hours at 37° C., 5% CO2. At the end of the incubation, the cell culture plates were centrifuged at 500 g for 5 min, and the cell culture supernatant was collected. The level of cytokines (TNFa and IL12p40) in the supernatant was measured by electrochemiluminescence immunoassays (Mesoscale Discovery) following manufacturer's recommended protocols. The level of cytokine measured was plotted against the antagonist concentration and fitted to a sigmoidal function to determine the EC50, which are shown below in Table 6.

In another assay the target is T2, TLR7 (Homo sapiens, UniProt Q9NYK1).
T2 construct: Human peripheral blood mononuclear cells (PBMCs) consist of lymphocytes, monocytes and dendritic cells that express TLR7, TLR8 and TLR9; endogenous in cells; host or cells: cryopreserved human PBMCs from healthy donors
T2 sequence (Q9NYK1 27-1049): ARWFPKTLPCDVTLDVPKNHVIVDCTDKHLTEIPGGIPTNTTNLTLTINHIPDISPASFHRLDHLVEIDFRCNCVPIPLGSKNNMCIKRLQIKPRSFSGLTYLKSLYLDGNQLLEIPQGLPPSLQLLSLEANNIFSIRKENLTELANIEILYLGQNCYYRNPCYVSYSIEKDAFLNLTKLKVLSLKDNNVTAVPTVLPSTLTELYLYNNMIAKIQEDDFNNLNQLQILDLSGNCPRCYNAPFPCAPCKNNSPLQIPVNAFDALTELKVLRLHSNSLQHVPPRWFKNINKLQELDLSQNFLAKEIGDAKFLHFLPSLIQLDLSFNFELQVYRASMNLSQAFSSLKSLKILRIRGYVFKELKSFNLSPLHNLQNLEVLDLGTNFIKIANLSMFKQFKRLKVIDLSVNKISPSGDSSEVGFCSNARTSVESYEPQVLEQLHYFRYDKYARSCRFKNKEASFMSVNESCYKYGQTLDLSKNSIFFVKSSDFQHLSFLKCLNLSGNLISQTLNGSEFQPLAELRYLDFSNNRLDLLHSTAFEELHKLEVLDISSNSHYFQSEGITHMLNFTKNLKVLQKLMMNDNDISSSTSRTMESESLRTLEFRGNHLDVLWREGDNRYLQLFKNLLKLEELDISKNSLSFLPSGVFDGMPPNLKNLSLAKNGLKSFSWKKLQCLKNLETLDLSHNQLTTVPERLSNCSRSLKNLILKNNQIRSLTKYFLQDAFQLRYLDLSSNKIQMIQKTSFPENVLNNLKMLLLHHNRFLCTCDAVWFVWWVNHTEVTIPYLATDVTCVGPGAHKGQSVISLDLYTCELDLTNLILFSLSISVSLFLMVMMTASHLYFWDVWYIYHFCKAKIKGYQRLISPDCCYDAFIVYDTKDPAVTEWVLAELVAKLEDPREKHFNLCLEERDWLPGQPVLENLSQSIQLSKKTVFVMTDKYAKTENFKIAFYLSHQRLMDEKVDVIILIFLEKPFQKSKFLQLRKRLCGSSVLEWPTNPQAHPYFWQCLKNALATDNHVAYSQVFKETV
As to the kind of experiment: TLR7 human peripheral blood mononuclear cell (PBMC) cell-based assay. The conditions noted are these: human PBMCs; 1 h with test antagonist, then TLR7 agonist GS-986 400 nM for 6 h; cytokines (IL-6 and IFNα) in supernatant; read-out: TLR-7 EC50. The source says:
TLR7/9 Human Peripheral Blood Mononuclear Cell (PBMC) Cell-Based Assay
Human peripheral blood mononuclear cells (PBMCs) consist of lymphocytes, monocytes and dendritic cells that express TLR7, TLR8 and TLR9. These cells respond to TLR7, TLR8 and TLR9 ligand stimulation and produce cytokines and chemokines in vitro and in vivo. Human PBMCs are therefore suitable to be used in a cell-based assay to assess the in vitro potency of a TLR 7, 8, and/or 9 antagonist.
Cryopreserved human PBMCs from healthy donors were thawed and resuspended in RPMI-1640 media with L-glutamine (Corning) supplemented with 10% Fetal Bovine Serum (Hyclone) and 1× Penicillin-Streptomycin (Corning). After counting, the cell density was adjusted to 2 million cells/ml and incubated for 1 hour at 37° C., 5% CO2 for recovery. Following the recovery, the cells were plated by adding 50 μl per well (100,000 cells) to 384-well cell culture plates (Greiner) containing 250 nl of test antagonists in 100% DMSO per well, in a 10 points dose response in quadruplicates. PBMCs were incubated in the presence of test antagonists for one hour at 37° C., 5% CO2 before being stimulated with a TLR7 or TLR9 agonist. GS-986 (Gilead Sciences) was used as the TLR7 agonist at a final concentration of 400 nM. ODN-2216 (InvivoGen) was used as the TLR9 agonist at a final concentration of 3 μM. PBMCs were incubated in the presence of the test antagonist and the TLR7 (or TLR9) agonist for an additional 6 hours at 37° C., 5% CO2. At the end of the incubation, the cell culture plates were centrifuged at 500 g for 5 min, and the cell culture supernatant was collected. The level of cytokines (IL-6 and IFNα) in the supernatant was measured by electrochemiluminescence immunoassays (Mesoscale Discovery) following manufacturer's recommended protocols. The level of cytokine measured was plotted against the test antagonist concentration and fitted to a sigmoidal function to determine the EC50, which are shown below in Table 6.

Take `Cc1c(C2CCN(C(=O)[C@H]3C[C@H](F)CN3)CC2)sc2[nH]c(-c3cn4ncnc4c4c3CCC4)c(C(C)C)c12` [Example 17]: the EC50 is 15.2 nM at TLR8 and 0.68 nM on TLR7.
The matching figures for `CO[C@H]1CN[C@@H](C(=O)N2CCC(c3sc4[nH]c(-c5cn6ncnc6c6c5CCC6)c(C(C)C)c4c3C)CC2)C1` [Example 18]: 4.42 nM and 0.44 nM.
In the same order, the values of `CO[C@@H]1CN[C@@H](C(=O)N2CCC(c3sc4[nH]c(-c5cn6ncnc6c6c5CCC6)c(C(C)C)c4c3C)CC2)C1` [Example 19] are 5.42 nM and 0.14 nM.
The matching figures for `Cc1c(C2CCN(C(=O)C3(N4CCOCC4)CC3)CC2)sc2[nH]c(-c3cn4ncnc4c4c3CCC4)c(C(C)C)c12` [Example 20]: 22.3 nM and 4.63 nM.
Take `Cc1c(-c2ccc(N3CCNCC3)cc2)sc2[nH]c(-c3cn4ncnc4c4c3CCC4)c(C(C)C)c12` [Example 21, 5-(8,9-dihydro-7H-cyclopenta[c][1,2,4]triazolo[1,5-a]pyridin-6-yl)-4-isopropyl-3-methyl-2-(4-(piperazin-1-yl)phenyl)-6H-thieno[2,3-b]pyrrole]: the half-maximal effective concentration (EC50) at TLR8 worked out at 1.32 nM; on TLR7 it was 0.51 nM.
For `Cc1c(-c2ccc(N3CCNCC3)nc2)sc2[nH]c(-c3cn4ncnc4c4c3CCC4)c(C(C)C)c12` [Example 22], the EC50 was found to be 0.66 nM on TLR8 and 0.23 nM on TLR7.
`Cc1c(-c2cn(C3CCNCC3)nn2)sc2[nH]c(-c3cn4ncnc4c4c3CCC4)c(C(C)C)c12` [Example 24]: the half-maximal effective concentration (EC50) worked out at 0.21 nM on TLR8 and 0.94 nM on TLR7.
The matching figures for `Cc1c(C2CCN(C(=O)[C@H]3C[C@@]4(CNCCO4)C3)CC2)sc2[nH]c(-c3cn4ncnc4c4c3CCC4)c(C(C)C)c12` [Example 25]: 1.38 nM and 0.05 nM.
As to `Cc1c(C2CCC(N3CC4(CCNC4=O)C3)CC2)sc2[nH]c(-c3cn4ncnc4c4c3CCC4)c(C(C)C)c12` (stereo not shown) [Example 27], the EC50 on TLR8 came to 2.55 nM; on TLR7, 0.26 nM.
The matching figures for `Cc1c(C2CCC(N3CC(C)(O)C3)CC2)sc2[nH]c(-c3cn4ncnc4c4c3CCC4)c(C(C)C)c12` (stereo not shown) [Example 28]: 1.57 nM and 0.15 nM.
The matching figures for `Cc1c(C2CCC(N3CC4(COC4)C3)CC2)sc2[nH]c(-c3cn4ncnc4c4c3CCC4)c(C(C)C)c12` (stereo not shown) [Example 29]: 1 nM and 0.1 nM.
As to `Cc1c(C2CCC(N3CC4(CCN(C)C4=O)C3)CC2)sc2[nH]c(-c3cn4ncnc4c4c3CCC4)c(C(C)C)c12` (stereo not shown) [Example 30], the EC50 at TLR8 was found to be 1.29 nM; on TLR7, 0.86 nM.
In the same order, the values of `Cc1c(C2CCN(C(=O)[C@H]3C[C@@H](O)CN3)CC2)sc2[nH]c(-c3cn4ncnc4c4c3CCC4)c(C(C)C)c12` [Example 31] are 6.38 nM and 1.33 nM.
In the case of `Cc1c(C2CCN(C(=O)[C@H]3C[C@H](O)CN3)CC2)sc2[nH]c(-c3cn4ncnc4c4c3CCC4)c(C(C)C)c12` [Example 32], the EC50 at TLR8 was 11.3 nM; on TLR7 it was 1.5 nM.
Turning to `CC(C)c1c(-c2cn3ncnc3c3c2CCC3)[nH]c2sc(C3CCN(C(=O)[C@H]4COCCN4)CC3)cc12` [Example 33], the figures for the 50% effective concentration (EC50) on TLR8 and on TLR7 were 7.57 nM and 2.33 nM, respectively.
Regarding `CC(C)c1c(-c2cn3ncnc3c3c2CCC3)[nH]c2sc(C3CCN(CC(N)=O)CC3)cc12` [Example 34], the EC50 on TLR8 is 1.57 nM; at TLR7, 0.58 nM.
The matching figures for `Cc1c(C2CCNCC2)sc2[nH]c(-c3cn4ncnc4c4c3CCO4)c(C(C)C)c12` [Example 35]: 7.88 nM and 0.33 nM.
The matching figures for `Cc1c(C2CCN(CC(N)=O)CC2)sc2[nH]c(-c3cn4ncnc4c4c3CCO4)c(C(C)C)c12` [Example 36]: 27.6 nM and 4.5 nM.
The matching figures for `Cc1c(C2CCN(C(=O)[C@H]3COCCN3)CC2)sc2[nH]c(-c3cn4ncnc4c4c3CCO4)c(C(C)C)c12` [Example 37]: 24.5 nM and 2.95 nM.
`Cc1c([C@@H]2C[C@@H]3C[C@H]2CN3CC(N)=O)sc2[nH]c(-c3cn4ncnc4c4c3CCO4)c(C(C)C)c12` [Example 38]: the 50% effective concentration (EC50) on TLR8 turned out to be 0.81 nM; on TLR7, 0.58 nM.
